According to ChEMBL document CHEMBL5653615 (J Biol Chem, 2013):
Each block holds one compound with its values, some of them ahead of it.

How the values were obtained:
[1] = biological target: ALK tyrosine kinase receptor (Homo sapiens) (UniProt Q9UM73); test: Inhibition of human ALK at 500 nM by HotSpot assay relative to control
[2] = biological target: Dual specificity tyrosine-phosphorylation-regulated kinase 1A (Homo sapiens) (UniProt Q13627); test: Inhibition of human DYRK1 at 18.6 nM by HotSpot assay relative to control
[3] = biological target: Dual specificity protein kinase CLK2 (Homo sapiens) (UniProt P49760); test: Inhibition of human CLK2 at 18.6 nM by HotSpot assay relative to control
[4] = biological target: Hepatocyte growth factor receptor (Homo sapiens) (UniProt P08581); test: Inhibition of human c-MET at 18.6 nM by HotSpot assay relative to control
[5] = biological target: Serine/threonine-protein kinase PAK 4 (Homo sapiens) (UniProt O96013); test: Inhibition of human PAK4 at 18.6 nM by HotSpot assay relative to control
[6] = biological target: Mitogen-activated protein kinase 8 (Homo sapiens) (UniProt P45983); test: Inhibition of human JNK1 at 18.6 nM by HotSpot assay relative to control
[7] = biological target: Receptor-interacting serine/threonine-protein kinase 2 (Homo sapiens) (UniProt O43353); test: Inhibition of human RIPK2 at 18.6 nM by HotSpot assay relative to control
[8] = biological target: Focal adhesion kinase 1 (Homo sapiens) (UniProt Q05397); test: Inhibition of human FAK at 18.6 nM by HotSpot assay relative to control
[9] = biological target: G protein-coupled receptor kinase 6 (Homo sapiens) (UniProt P43250); test: Inhibition of human GRK6 at 18.6 nM by HotSpot assay relative to control
[10] = biological target: Tyrosine-protein kinase JAK1 (Homo sapiens) (UniProt P23458); test: Inhibition of human JAK1 at 18.6 nM by HotSpot assay relative to control
[11] = biological target: Insulin receptor-related protein (Homo sapiens) (UniProt P14616); test: Inhibition of human IRR at 18.6 nM by HotSpot assay relative to control
[12] = biological target: SRSF protein kinase 2 (Homo sapiens) (UniProt P78362); test: Inhibition of human SRPK2 at 1.82 nM by HotSpot assay relative to control
[13] = biological target: Ribosomal protein S6 kinase alpha-2 (Homo sapiens) (UniProt Q15349); test: Inhibition of human RSK3 at 1.82 nM by HotSpot assay relative to control
[14] = biological target: Cyclin-dependent kinase 4/cyclin D1 (Homo sapiens) (UniProt P11802+P24385); test: Inhibition of human CDK4/cyclin D1 at 1.82 nM by HotSpot assay relative to control; assay type: protein-complex assay
[15] = biological target: Calcium/calmodulin-dependent protein kinase type 1 (Homo sapiens) (UniProt Q14012); test: Inhibition of human CAMK1a at 1.82 nM by HotSpot assay relative to control
[16] = biological target: T1, Aurora kinase C (Homo sapiens) (UniProt Q9UQB9); test: Inhibition of human Aurora C at 1.82 nM by HotSpot assay relative to control
T1 sequence (whole entry): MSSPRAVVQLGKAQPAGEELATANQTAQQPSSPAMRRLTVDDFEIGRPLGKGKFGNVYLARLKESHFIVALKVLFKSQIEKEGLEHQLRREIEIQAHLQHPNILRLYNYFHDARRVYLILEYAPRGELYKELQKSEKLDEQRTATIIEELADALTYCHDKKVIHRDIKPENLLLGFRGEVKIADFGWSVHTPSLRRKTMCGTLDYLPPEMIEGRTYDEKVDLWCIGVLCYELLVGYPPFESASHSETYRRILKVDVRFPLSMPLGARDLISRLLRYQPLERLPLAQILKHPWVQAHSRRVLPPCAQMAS

[17] = biological target: Tyrosine-protein kinase BTK (Homo sapiens) (UniProt Q06187); test: Inhibition of human BTK at 1.82 nM by HotSpot assay relative to control
[18] = biological target: T2, Dual serine/threonine and tyrosine protein kinase (Homo sapiens) (UniProt Q6XUX3); test: Inhibition of human RIPK5 at 1.82 nM by HotSpot assay relative to control
T2 sequence (whole entry): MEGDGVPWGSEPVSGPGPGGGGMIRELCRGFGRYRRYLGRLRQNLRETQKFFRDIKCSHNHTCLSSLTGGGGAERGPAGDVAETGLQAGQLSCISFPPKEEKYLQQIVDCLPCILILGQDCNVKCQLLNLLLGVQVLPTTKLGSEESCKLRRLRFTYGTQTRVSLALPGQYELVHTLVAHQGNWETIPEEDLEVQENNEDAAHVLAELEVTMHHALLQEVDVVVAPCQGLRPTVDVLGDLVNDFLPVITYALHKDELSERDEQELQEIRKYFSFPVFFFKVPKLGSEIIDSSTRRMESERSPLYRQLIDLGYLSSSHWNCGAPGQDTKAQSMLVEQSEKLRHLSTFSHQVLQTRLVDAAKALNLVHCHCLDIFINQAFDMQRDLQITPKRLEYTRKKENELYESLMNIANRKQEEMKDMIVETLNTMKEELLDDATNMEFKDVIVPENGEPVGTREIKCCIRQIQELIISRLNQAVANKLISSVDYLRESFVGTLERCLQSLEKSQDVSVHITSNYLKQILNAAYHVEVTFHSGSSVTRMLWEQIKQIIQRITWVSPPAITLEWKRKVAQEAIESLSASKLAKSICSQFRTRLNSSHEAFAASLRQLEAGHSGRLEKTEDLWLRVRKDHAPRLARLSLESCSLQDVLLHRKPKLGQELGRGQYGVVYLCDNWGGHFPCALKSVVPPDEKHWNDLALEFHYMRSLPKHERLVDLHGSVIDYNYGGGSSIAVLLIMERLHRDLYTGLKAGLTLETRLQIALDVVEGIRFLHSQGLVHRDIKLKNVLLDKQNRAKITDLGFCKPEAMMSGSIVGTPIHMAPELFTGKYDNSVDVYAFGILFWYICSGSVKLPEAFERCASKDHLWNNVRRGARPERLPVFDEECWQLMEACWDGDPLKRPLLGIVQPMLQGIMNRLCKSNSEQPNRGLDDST

[19] = biological target: Dual specificity mitogen-activated protein kinase kinase 1 (Homo sapiens) (UniProt Q02750); test: Inhibition of human MEK1 at 1.82 nM by HotSpot assay relative to control
[20] = biological target: Activin receptor type-1-like (Homo sapiens) (UniProt P37023); test: Inhibition of human ALK1 at 1.82 nM by HotSpot assay relative to control
[21] = biological target: RAC-beta serine/threonine-protein kinase (Homo sapiens) (UniProt P31751); test: Inhibition of human AKT2 at 1.82 nM by HotSpot assay relative to control
[22] = biological target: Serine/threonine-protein kinase Nek6 (Homo sapiens) (UniProt Q9HC98); test: Inhibition of human NEK6 at 1.82 nM by HotSpot assay relative to control
[23] = biological target: Myosin light chain kinase 2, skeletal/cardiac muscle (Homo sapiens) (UniProt Q9H1R3); test: Inhibition of human MYLK2 at 1.82 nM by HotSpot assay relative to control
Myosin light chain kinase 2, skeletal/cardiac muscle (Homo sapiens), sequence (Q9H1R3 whole entry): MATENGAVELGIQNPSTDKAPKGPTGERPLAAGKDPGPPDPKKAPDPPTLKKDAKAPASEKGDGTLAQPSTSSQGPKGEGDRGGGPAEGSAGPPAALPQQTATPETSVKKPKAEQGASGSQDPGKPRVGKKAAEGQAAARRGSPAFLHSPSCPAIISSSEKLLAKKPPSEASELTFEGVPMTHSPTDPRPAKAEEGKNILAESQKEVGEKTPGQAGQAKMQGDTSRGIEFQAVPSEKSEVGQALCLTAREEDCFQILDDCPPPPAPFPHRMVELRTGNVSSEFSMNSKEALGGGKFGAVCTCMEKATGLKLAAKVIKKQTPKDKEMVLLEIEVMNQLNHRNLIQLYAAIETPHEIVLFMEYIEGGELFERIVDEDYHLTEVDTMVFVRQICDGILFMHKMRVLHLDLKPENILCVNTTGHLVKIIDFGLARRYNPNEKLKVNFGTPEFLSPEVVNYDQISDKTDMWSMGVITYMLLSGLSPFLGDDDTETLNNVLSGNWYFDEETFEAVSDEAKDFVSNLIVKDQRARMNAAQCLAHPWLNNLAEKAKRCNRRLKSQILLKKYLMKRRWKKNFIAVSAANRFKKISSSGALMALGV

Insulin receptor-related protein (Homo sapiens), sequence (P14616 27-742 limits assumed): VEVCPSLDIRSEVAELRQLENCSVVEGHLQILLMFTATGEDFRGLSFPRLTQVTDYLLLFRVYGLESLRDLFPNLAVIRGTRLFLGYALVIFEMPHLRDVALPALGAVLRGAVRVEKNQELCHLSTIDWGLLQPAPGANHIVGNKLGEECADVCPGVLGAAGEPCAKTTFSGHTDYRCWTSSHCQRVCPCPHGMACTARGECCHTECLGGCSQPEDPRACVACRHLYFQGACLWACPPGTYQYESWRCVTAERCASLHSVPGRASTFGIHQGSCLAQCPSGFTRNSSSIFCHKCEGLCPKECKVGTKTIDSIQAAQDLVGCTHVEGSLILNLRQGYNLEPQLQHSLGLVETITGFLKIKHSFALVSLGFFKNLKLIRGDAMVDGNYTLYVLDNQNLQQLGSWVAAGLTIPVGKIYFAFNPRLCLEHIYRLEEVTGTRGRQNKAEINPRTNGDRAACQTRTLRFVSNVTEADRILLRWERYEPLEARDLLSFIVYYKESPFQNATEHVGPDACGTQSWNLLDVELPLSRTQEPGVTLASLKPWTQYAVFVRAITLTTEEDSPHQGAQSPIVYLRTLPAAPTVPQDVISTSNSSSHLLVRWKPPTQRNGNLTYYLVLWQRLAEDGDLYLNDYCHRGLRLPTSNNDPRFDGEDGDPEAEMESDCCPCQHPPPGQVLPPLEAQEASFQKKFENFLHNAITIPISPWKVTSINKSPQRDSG
Insulin receptor-related protein (Homo sapiens), sequence (P14616 747-1297 limits assumed): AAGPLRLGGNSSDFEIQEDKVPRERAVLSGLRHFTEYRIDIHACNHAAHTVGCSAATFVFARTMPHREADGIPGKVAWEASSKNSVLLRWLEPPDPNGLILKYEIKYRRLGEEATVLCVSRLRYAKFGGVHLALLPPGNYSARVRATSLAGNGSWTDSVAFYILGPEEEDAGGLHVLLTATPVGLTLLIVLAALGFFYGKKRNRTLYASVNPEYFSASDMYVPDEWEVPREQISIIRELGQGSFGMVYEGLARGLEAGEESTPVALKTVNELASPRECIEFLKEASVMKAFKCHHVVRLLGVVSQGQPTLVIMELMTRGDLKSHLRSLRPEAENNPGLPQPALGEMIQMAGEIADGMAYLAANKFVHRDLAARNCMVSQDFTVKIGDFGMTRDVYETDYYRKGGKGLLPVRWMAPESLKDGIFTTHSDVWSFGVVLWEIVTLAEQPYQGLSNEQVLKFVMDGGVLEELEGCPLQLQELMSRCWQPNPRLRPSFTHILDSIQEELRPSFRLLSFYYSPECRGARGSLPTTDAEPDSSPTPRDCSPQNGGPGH
Serine/threonine-protein kinase PAK 4 (Homo sapiens), sequence (O96013 whole entry, looked up): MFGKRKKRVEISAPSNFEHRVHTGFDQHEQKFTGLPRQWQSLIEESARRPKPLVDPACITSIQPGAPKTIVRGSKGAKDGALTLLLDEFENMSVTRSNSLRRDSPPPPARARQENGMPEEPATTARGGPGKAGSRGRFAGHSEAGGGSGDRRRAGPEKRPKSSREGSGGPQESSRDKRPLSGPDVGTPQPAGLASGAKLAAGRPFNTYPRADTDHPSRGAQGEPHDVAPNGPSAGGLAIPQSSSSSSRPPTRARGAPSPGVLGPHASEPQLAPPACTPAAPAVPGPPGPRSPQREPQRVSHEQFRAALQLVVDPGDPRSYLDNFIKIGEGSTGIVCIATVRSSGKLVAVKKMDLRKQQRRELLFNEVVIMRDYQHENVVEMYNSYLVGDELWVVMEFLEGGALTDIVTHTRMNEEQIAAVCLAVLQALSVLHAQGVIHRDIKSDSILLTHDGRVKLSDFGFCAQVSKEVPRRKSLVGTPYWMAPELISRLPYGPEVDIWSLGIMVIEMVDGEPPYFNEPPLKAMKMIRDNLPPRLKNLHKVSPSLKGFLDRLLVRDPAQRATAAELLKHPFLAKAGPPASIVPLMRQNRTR
ALK tyrosine kinase receptor (Homo sapiens), sequence (Q9UM73 19-1620 limits assumed): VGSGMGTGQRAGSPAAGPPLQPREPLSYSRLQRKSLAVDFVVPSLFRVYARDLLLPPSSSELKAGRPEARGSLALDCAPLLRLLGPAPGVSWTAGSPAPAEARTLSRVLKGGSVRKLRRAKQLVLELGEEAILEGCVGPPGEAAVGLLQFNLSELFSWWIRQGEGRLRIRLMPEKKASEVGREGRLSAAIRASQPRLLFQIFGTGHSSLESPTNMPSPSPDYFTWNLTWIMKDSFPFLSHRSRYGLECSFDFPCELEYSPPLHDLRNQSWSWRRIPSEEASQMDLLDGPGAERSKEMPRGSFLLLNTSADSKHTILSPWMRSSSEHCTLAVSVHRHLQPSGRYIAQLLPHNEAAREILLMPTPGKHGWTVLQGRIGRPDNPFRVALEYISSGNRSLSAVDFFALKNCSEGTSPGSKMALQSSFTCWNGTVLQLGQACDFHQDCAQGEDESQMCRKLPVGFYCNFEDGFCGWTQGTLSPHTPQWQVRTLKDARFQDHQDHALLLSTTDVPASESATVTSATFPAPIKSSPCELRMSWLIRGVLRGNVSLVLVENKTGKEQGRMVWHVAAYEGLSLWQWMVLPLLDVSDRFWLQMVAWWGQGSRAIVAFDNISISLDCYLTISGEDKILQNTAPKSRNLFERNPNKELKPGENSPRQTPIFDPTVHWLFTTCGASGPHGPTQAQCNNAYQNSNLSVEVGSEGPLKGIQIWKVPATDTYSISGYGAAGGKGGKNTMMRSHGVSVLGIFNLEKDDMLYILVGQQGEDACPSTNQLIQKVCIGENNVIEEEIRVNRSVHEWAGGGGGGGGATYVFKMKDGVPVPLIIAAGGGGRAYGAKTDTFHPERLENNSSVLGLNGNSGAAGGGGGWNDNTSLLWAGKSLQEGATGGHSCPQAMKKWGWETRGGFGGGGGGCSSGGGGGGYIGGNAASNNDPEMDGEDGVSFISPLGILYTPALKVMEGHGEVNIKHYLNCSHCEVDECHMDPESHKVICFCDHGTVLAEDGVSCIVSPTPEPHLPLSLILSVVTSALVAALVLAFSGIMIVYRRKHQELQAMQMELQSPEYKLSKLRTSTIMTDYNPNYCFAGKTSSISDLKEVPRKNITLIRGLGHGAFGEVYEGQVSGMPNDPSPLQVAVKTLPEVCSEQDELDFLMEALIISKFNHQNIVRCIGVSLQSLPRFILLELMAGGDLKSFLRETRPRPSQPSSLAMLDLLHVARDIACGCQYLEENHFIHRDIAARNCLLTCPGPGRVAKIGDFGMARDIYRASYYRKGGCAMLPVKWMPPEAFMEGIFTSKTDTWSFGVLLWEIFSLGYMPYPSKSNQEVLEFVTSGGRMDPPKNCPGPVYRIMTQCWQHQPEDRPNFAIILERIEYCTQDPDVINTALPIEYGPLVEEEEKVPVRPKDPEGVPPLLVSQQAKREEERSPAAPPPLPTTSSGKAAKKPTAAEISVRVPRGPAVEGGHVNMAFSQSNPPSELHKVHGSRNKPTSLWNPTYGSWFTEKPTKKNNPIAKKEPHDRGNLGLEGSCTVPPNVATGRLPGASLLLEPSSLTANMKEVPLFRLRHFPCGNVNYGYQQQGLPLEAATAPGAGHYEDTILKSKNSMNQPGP
Serine/threonine-protein kinase Nek6 (Homo sapiens), sequence (Q9HC98 whole entry): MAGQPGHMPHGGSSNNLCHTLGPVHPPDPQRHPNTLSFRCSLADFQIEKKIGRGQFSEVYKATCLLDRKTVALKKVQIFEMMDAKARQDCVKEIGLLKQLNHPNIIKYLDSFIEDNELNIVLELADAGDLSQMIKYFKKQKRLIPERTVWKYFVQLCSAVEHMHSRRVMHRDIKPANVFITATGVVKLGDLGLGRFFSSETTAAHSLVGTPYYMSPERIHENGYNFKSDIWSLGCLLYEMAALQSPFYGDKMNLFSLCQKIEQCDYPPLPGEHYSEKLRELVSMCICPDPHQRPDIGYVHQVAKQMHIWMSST
RAC-beta serine/threonine-protein kinase (Homo sapiens), sequence (P31751 whole entry): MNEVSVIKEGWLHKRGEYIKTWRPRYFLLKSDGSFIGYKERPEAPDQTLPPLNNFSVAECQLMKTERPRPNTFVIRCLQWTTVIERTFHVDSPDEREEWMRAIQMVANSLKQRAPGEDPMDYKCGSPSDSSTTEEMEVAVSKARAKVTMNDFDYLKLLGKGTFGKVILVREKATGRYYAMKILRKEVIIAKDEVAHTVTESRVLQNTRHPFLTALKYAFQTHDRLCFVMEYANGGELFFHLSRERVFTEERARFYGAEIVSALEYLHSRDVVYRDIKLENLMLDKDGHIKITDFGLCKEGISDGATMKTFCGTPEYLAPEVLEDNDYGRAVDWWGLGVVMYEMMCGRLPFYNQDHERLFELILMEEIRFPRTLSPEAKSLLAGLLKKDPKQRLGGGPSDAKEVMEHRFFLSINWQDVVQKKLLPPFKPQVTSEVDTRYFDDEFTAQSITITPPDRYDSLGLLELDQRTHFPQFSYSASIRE

SMILES: Nc1n[nH]c2nnc(-c3c(-c4ccccc4)nn4ccccc34)cc12
inhibition [1]: -7.89%

inhibition [2]: -1.6%
inhibition [3]: 4.4%
inhibition [4]: -4.38%
inhibition [5]: -5.78%
inhibition [6]: -1.1%
inhibition [7]: 12.1%
inhibition [8]: 1.73%
inhibition [9]: 3.48%
inhibition [10]: -9.75%
inhibition [11]: 100%
SMILES: C[C@]1(O)C[C@@H](c2nc(-c3ccc4ccc(-c5ccccc5)nc4c3)c3c(N)nccn32)C1

inhibition [12]: -2.03%
inhibition [13]: -2.19%
inhibition [14]: -5.89%
inhibition [15]: 2.2%
inhibition [16]: 35.7%
inhibition [17]: 4.42%
inhibition [18]: 4.61%
inhibition [19]: -6.3%
inhibition [20]: 0.3%
inhibition [21]: -0.4%
inhibition [22]: 5.33%
inhibition [23]: -4.22%
SMILES: C[C@@]1(C(=O)Nc2ccc(F)nc2)CCCN1c1nc(Nc2cc(C3CC3)n[nH]2)c2cccn2n1
